Assay results as given in patent US11242337B2, “Compounds useful for treating gastrointestinal tract disorders” (Ardelyx, Inc., priority 2017, dated 2022).

What was measured:
NHE3 [1] = biological target: T1, NHE3 (Homo sapiens, UniProt P48764); assay: Cell-based assay of NHE-3 activity (pre-incubation inhibition), human; details: human Preincubation
T1 construct: expressed in transfected cells
T1 sequence (P48764 26-834): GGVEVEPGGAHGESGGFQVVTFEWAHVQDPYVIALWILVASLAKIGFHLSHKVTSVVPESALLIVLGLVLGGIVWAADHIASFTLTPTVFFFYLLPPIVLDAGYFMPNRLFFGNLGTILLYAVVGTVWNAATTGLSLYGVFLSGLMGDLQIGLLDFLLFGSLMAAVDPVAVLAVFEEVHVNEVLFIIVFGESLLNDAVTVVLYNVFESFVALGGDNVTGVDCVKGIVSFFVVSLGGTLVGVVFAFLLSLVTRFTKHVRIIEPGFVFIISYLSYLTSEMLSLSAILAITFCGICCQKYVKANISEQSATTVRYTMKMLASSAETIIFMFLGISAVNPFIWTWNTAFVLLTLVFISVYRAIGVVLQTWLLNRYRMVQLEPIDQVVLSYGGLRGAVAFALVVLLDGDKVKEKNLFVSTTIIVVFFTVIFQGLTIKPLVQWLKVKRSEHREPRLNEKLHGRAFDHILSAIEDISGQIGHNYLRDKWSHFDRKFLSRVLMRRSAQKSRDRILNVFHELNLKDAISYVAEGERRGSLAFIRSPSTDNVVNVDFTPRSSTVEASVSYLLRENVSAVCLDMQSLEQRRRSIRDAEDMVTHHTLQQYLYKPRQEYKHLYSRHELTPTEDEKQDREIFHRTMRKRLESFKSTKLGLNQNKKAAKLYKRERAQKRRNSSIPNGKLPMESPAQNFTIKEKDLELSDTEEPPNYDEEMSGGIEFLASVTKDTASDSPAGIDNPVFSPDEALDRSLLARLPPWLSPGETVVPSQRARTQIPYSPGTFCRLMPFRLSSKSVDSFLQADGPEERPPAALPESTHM
T1 sequence (Q99653 2-195 partner limits assumed): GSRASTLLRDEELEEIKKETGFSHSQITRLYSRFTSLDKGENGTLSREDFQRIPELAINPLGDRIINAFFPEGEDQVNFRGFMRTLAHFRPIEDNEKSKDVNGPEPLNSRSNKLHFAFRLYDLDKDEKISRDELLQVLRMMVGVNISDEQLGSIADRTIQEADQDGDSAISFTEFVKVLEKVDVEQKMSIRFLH
Experimental: Rat and human NHE-3-mediated Na^+-dependent H^+ antiport was measured using a modification of the pH sensitive dye method originally reported by Paradiso (Proc. Natl. Acad. Sci. USA. (1984) 81(23): 7436-7440). PS120 fibroblasts stably expressing human NHE3 and NHERF2 were obtained from Mark Donowitz (Baltimore, Md.). Opossum kidney (OK) cells were obtained from the ATCC and propagated per their instructions. The rat NHE-3 gene (GenBank M85300) was introduced into OK cells via electroporation, and cells were seeded into 96 well plates and grown overnight. Medium was aspirated from the wells then incubated for 30 min at 37° C. with NH4Cl-HEPES buffer (20 mM NH4Cl, 80 mM NaCl, 50 mM HEPES, 5 mM KCl, 2 mM CaCl2, 1 mM MgCl2, pH 7.4) containing 5 μM BCECF-AM. Cells were washed once with Ammonium free, Na^+-free HEPES (100 mM choline, 50 mM HEPES, 10 mM glucose, 5 mM KCl, 2 mM CaCl2, 1 mM MgCl2, pH 7.4) and incubated in the same buffer for 10 minutes at room temperature to lower intracellular pH with 0-30 μM test compound. […] Changes in intracellular pH were monitored using a FLIPR Tetra® (Molecular Devices, Sunnyvale, Calif.) by excitation at λex 439 to 505 nm, and measuring BCECF fluorescence at λem 538 nm. The initial rate of the fluorescence ratio change was used as a measure of NHE-mediated Na^+/H^+ activity, and reported as the change in fluorescence ratio per minute.

NHE3 [2] = biological target: T1, NHE3; assay: Cell-based assay of NHE-3 activity (persistent inhibition), human; details: human Persistence, 60 min incubation then washout
Experimental: The ability of compounds to inhibit human and rat NHE-3-mediated Na^+ dependent H^+ antiport after application and washout was measured using a modification of the pH sensitive dye method described above. PS120 fibroblasts stably expressing human NHE3 and NHERF2 were obtained from Mark Donowitz (Baltimore, Md.). Opossum kidney (OK) cells were obtained from the ATCC and propagated per their instructions. The rat NHE-3 gene was introduced into OK cells via electroporation, and cells were seeded into 96 well plates and grown overnight. Medium was aspirated from the wells, cells were washed once with NaCl-HEPES buffer (100 mM NaCl, 50 mM HEPES, 10 mM glucose, 5 mM KCl, 2 mM CaCl2, 1 mM MgCl2, pH 7.4), then overlayed with NaCl-HEPES buffer containing 0-30 μM test compound. After a 60 min incubation at room temperature, the test drug containing buffer was aspirated from the cells. Following aspiration, cells were washed once with NaCl-HEPES buffer without drug, then incubated for 30 min at 37° C. with NH4Cl-HEPES buffer (20 mM NH4Cl, 80 mM NaCl, 50 mM HEPES, 5 mM KCl, 2 mM CaCl2, 1 mM MgCl2, pH 7.4) containing 5 μM BCECF-AM. Cells were washed once with Ammonium free, Na^+-free HEPES (100 mM choline, 50 mM HEPES, 10 mM glucose, 5 mM KCl, 2 mM CaCl2, 1 mM MgCl2, pH 7.4) and incubated in the same buffer for 10 minutes at room temperature to lower intracellular pH. NHE-3-mediated recovery of neutral intracellular pH was initiated (10 min after compound washout) by addition of Na-HEPES buffer. […] Changes in intracellular pH were monitored using a FLIPR Tetra® (Molecular Devices, Sunnyvale, Calif.) by excitation at λex 439 to 505 nm, and measuring BCECF fluorescence at λem 538 nm. The initial rate of the fluorescence ratio change was used as a measure of NHE-mediated Na^+/H^+ activity, and reported as the change in fluorescence ratio per minute.

| % inhibition (NHE3 [1]) | pIC50 (NHE3 [1]; 0-30 μM test compound) | % inhibition (NHE3 [2]) | IC50 (NHE3 [2]) | pIC50 (NHE3 [2]) | IC50 (NHE3 [1]; 0-30 μM test compound) | SMILES |
| --- | --- | --- | --- | --- | --- | --- |
| A (NHE3 < 40%) | C (NHE3 pIC50 > 7) | B (40-70%) | 100 to 1000 nM |  |  | COc1cc(Cl)cc2c1C[C@H](N1CCC[C@@H](N)C1)[C@H]2Oc1ccc(S(=O)(=O)NCCOCCOCCNC(=O)NCCCCNC(=O)NCCOCCOCCNS(=O)(=O)c2ccc(O[C@H]3c4cc(Cl)cc(OC)c4C[C@@H]3N3CCC[C@@H](N)C3)c(C)c2)cc1C [Example 9, 3-[2-(2-[2-[(4-[[(1S,2S)-2-[(3R)-3-Aminopiperidin-1-yl]-6-chloro-4-methoxy-2,3-dihydro-1H-inden-1-yl]oxy]-3-methylbenzene)sulfonamido]ethoxy]ethoxy)ethyl]-1-[4-([[2-(2-[2-[(4-[[(1S,2S)-2-[(3R)-3-aminopiperidin-1-yl]-6-chloro-4-methoxy-2,3-dihydro-1H-inden-1-yl]oxy]-3-methylbenzene)sulfonamido]ethoxy]ethoxy)ethyl]carbamoyl]amino)butyl]urea bis(trifluoroacetic acid)] |
| B (40-70%) |  | C (>70%) |  |  |  | Cc1cc(Cl)cc2c1C[C@H](N1CCC[C@@H](N)C1)[C@H]2Oc1ccc(S(=O)(=O)NCCOCCOCCNC(=O)NCCCCNC(=O)NCCOCCOCCNS(=O)(=O)c2ccc(O[C@H]3c4cc(Cl)cc(C)c4C[C@@H]3N3CCC[C@@H](N)C3)c(F)c2)cc1F [Example 10, 3-[2-(2-[2-[(4-[[(1S,2S)-2-[(3R)-3-Aminopiperidin-1-yl]-6-chloro-4-methyl-2,3-dihydro-1H-inden-1-yl]oxy]-3-fluorobenzene)sulfonamido]ethoxy]ethoxy)ethyl]-1-[4-[[(2-(2-[2-[(4-[[(1S,2S)-2-[(3R)-3-aminopiperidin-1-yl]-6-chloro-4-methyl-2,3-dihydro-1H-inden-1-yl]oxy]-3-fluorobenzene)sulfonamido]ethoxy]ethoxy)ethyl]carbamoyl]amino)butyl]urea; bis(trifluoroacetic acid)] |
| C (>70%) | C (NHE3 pIC50 > 7) | C (>70%) |  | C (NHE3 pIC50 > 7) |  | Cc1cc(Cl)cc2c1C[C@H](N(C)C)[C@H]2Oc1ccc(S(=O)(=O)NCCOCCOCCNC(=O)NCCCCNC(=O)NCCOCCOCCNS(=O)(=O)c2ccc(O[C@H]3c4cc(Cl)cc(C)c4C[C@@H]3N(C)C)cc2)cc1 [Example 11] |
| A (NHE3 < 40%) | C (NHE3 pIC50 > 7) | B (40-70%) | 100 to 1000 nM |  |  | CN(C)[C@H]1Cc2c(C#N)cc(Cl)cc2[C@@H]1Oc1ccc(S(=O)(=O)NCCOCCOCCNC(=O)NCCCCNC(=O)NCCOCCOCCNS(=O)(=O)c2ccc(O[C@H]3c4cc(Cl)cc(C#N)c4C[C@@H]3N(C)C)cc2)cc1 [Example 12, 3-[2-(2-[2-[(4-[[(1S,2S)-6-Chloro-4-cyano-2-(dimethylamino)-2,3-dihydro-1H-inden-1-yl]oxy]benzene)sulfonamido]ethoxy]ethoxy)ethyl]-1-[4-([[2-(2-[2-[(4-[[(1S,2S)-6-chloro-4-cyano-2-(dimethylamino)-2,3-dihydro-1H-inden-1-yl]oxy]benzene)sulfonamido]ethoxy]ethoxy)ethyl]carbamoyl]amino)butyl]urea; bis(trifluoroacetic acid)] |
| A (NHE3 < 40%) |  | A (NHE3 < 40%) |  |  |  | CN(C)[C@H]1Cc2c(cc(Cl)cc2C(F)(F)F)[C@@H]1Oc1ccc(S(=O)(=O)NCCOCCOCCNC(=O)NCCCCNC(=O)NCCOCCOCCNS(=O)(=O)c2ccc(O[C@H]3c4cc(Cl)cc(C(F)(F)F)c4C[C@@H]3N(C)C)cc2)cc1 [Example 13, 3-[2-(2-[2-[(4-[[(1S,2S)-6-Chloro-2-(dimethylamino)-4-(trifluoromethyl)-2,3-dihydro-1H-inden-1-yl]oxy]benzene)sulfonamido]ethoxy]ethoxy)ethyl]-1-[4-([[2-(2-[2-[(4-[[(1S,2S)-6-chloro-2-(dimethylamino)-4-(trifluoromethyl)-2,3-dihydro-1H-inden-1-yl]oxy]benzene)sulfonamido]ethoxy]ethoxy)ethyl]carbamoyl]amino)butyl]urea] |
| B (40-70%) |  | A (NHE3 < 40%) |  |  |  | CN(C)[C@H]1Cc2c(OC(F)(F)F)cc(Cl)cc2[C@@H]1Oc1ccc(S(=O)(=O)NCCOCCOCCNC(=O)NCCCCNC(=O)NCCOCCOCCNS(=O)(=O)c2ccc(O[C@H]3c4cc(Cl)cc(OC(F)(F)F)c4C[C@@H]3N(C)C)cc2)cc1 [Example 14, 1-[2-(2-[2-[(4-[[(1S,2S)-6-Chloro-2-(dimethylamino)-4-(trifluoromethoxy)-2,3-dihydro-1H-inden-1-yl]oxy]benzene)sulfonamido]ethoxy]ethoxy)ethyl]-3-[4-([[2-(2-[2-[(4-[[(1S,2S)-6-chloro-2-(dimethylamino)-4-(trifluoromethoxy)-2,3-dihydro-1H-inden-1-yl]oxy]benzene)sulfonamido]ethoxy]ethoxy)ethyl]carbamoyl]amino)butyl]urea] |
| C (>70%) |  | A (NHE3 < 40%) |  | A (NHE3 pIC50 < 6) | 100 to 1000 nM | COc1cc(Cl)cc2c1C[C@H](N(C)C)[C@H]2Oc1ccc(S(=O)(=O)NCCOCCOCCNC(=O)NCCCCNC(=O)NCCOCCOCCNS(=O)(=O)c2ccc(O[C@H]3c4cc(Cl)cc(OC)c4C[C@@H]3N(C)C)cc2)cc1 [Example 15, 3-[2-(2-[2-[(4-[[(1S,2S)-6-Chloro-2-(dimethylamino)-4-methoxy-2,3-dihydro-1H-inden-1-yl]oxy]benzene)sulfonamido]ethoxy]ethoxy)ethyl]-1-[4-([[2-(2-[2-[(4-[[(1S,2S)-6-chloro-2-(dimethylamino)-4-methoxy-2,3-dihydro-1H-inden-1-yl]oxy]benzene)sulfonamido]ethoxy]ethoxy)ethyl]carbamoyl]amino)butyl]urea; bis(trifluoroacetic acid)] |
| B (40-70%) | C (NHE3 pIC50 > 7) | B (40-70%) |  | C (NHE3 pIC50 > 7) |  | Cc1cc(S(=O)(=O)NCCOCCOCCNC(=O)NCCCCNC(=O)NCCOCCOCCNS(=O)(=O)c2ccc(O[C@H]3c4cc(Cl)cc(F)c4C[C@@H]3N(C)C)c(C)c2)ccc1O[C@H]1c2cc(Cl)cc(F)c2C[C@@H]1N(C)C [Example 16] |
